The compounds below were run against TNFα (Homo sapiens (Human), UniProt P01375) (assay: TNF induced HEK-Blue assay). Details: TNFα 0.5 ng/ml; HEK-Blue-CD40L cells, NF-κB-driven secreted alkaline phosphatase reporter; 18 h.
Format: cell-based
Procedure: TNF or CD40L-induced HEK-Blue Assay Test compounds serially diluted in DMSO were plated in an assay plate (Labcyte, Cat. #LP-0200) at final concentrations ranging from 0.004 μM to 25μM. TNFα (final concentration 0.5 ng/ml) or CD4OL (final concentration 30 ng/ml) in assay buffer [DMEM, 4.5 g/l glucose (Gibco, Cat. 21063-029), 10% FBS (Sigma, F4135), 1% Penicillin-Streptomycin (Gibco, Cat. 15140-122), 1% Anti-Anti (Gibco, Cat. 15240-112) and 2 mM L-glutamine (Gibco, Cat. 25030-081)] was then added to the assay plate. After a 30 minute pre-incubation at 37° C. and 5% CO2, HEK-Blue-CD40L cells (InvivoGen, Cat. Code hkb-cd40) containing a NF-κB-driven secreted alkaline phosphatase reporter gene were seeded into the assay plate at a density of 20,000 cells per well. This plate was then incubated for 18 h at 37° C. and 5% CO2. Secreted alkaline phosphatase expression was measured using QUANTI-Blue (InvivoGen, Cat. Code rep-qb1) according to manufacturer's specifications and the assay plate was read on a PerkinElmer Envision at 620 nm. Inhibition data for the test compound over a range of concentrations was plotted as percentage inhibition of the test compound (100%=maximum inhibition). IC50 values were determined after correcting for background [(sample read−mean of low control)/(mean of high control−mean of low control)] where by the low control is DMSO without stimulation and high control is DMSO with stimulation. The IC50 is defined as the concentration of test compound which produces 50% inhibition and was quantified using the 4 parameter logistic equation to fit the data.

TNFα, sequence (P01375 77-233): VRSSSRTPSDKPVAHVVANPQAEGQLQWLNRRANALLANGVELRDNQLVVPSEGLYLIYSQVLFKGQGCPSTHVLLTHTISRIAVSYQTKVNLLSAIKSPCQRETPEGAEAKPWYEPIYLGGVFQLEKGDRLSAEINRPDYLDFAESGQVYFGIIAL

`CC(C)(O)c1ccc(-c2ccc3nc4c(n3n2)[C@H](c2cc(Cl)ccc2C(F)(F)F)NC[C@H]4O)cc1` (racemic) [Example 55, (+/−)-trans-9-(5-chloro-2-(trifluoromethyl)phenyl)-2-(4-(2-hydroxypropan-2-yl)phenyl)-6,7,8,9-tetrahydropyrido [4′,3′:4,5]imidazo[1,2-b]pyridazin-6-ol] and “(+/−)-cis-9-(4-fluoro-2-methylphenyl)-2-(4-(2-hydroxypropan-2-yl)phenyl)-6,7,8,9-tetrahydropyrido [4′,3′:4,5]imidazo[1,2-b]pyridazin-6-ol [Example 43]” fall in the same range of IC50: 1 to 10 µM for the first, 1 to 10 µM for the second.

`COc1ccc(-c2ccc3nc4c(n3n2)[C@H](c2ccccc2OC(F)F)NC[C@H]4O)cn1` (racemic) [Example 51, (+/−)-trans-9-(2-(difluoromethoxy)phenyl)-2-(6-methoxypyridin-3-yl)-6,7,8,9-tetrahydropyrido[4′,3′:4,5]imidazo[1,2-b]pyridazin-6-ol] and `NC(=O)c1ccc(-c2ccc3nc4c(n3n2)[C@@H](c2ccccc2OC(F)F)NC[C@H]4O)cc1Cl` (racemic) [Example 48, (+/−)-cis-2-chloro-4-(9-(2-(difluoromethoxy)phenyl)-6-hydroxy-6,7,8,9-tetrahydropyrido[4′,3′:4,5]imidazo[1,2-b]pyridazin-2-yl)benzamide] fall in the same range of IC50: 10 to 25 µM for the first, 10 to 25 µM for the second.

`CC(C)(O)c1ccc(-c2ccc3nc4c(n3n2)[C@H](c2ccccc2OC(F)F)NC[C@H]4O)cc1` [Example 14, trans-(6R,9S)-9-(2-(difluoromethoxy)phenyl)-2-(4-(2-hydroxypropan-2-yl)phenyl)-6,7,8,9-tetrahydropyrido[4′,3′:4,5]imidazo[1,2-b]pyridazin-6-ol] and “(+/−)-trans-9-(2,5-dimethylphenyl)-2-(4-(2-hydroxypropan-2-yl)phenyl)-6,7,8,9-tetrahydropyrido[4′,3′:4,5]imidazo[1,2-b]pyridazin-6-ol [Example 53]” fall in the same range of IC50: 1 to 10 µM for the first, 1 to 10 µM for the second.

`O=C(c1ccc(-c2ccc3nc4c(n3n2)[C@@H](c2ccccc2OC(F)F)NC[C@H]4O)cc1Cl)N1CCOCC1` (racemic) [Example 47, (+/−)-cis-(2-chloro-4-(9-(2-(difluoromethoxy)phenyl)-6-hydroxy-6,7,8,9-tetrahydropyrido[4′,3′:4,5]imidazo[1,2-b]pyridazin-2-yl)phenyl)(morpholino)methanone] and `COc1ccc(Cl)cc1[C@@H]1NC[C@@H](O)c2nc3ccc(-c4ccc(C(C)(C)O)cc4)nn3c21` (racemic) [Example 56, (+/−)-trans-9-(5-chloro-2-methoxyphenyl)-2-(4-(2-hydroxypropan-2-yl)phenyl)-6,7,8,9-tetrahydropyrido[4′,3′:4,5]imidazo[1,2-b]pyridazin-6-ol] fall in the same range of IC50: 1 to 10 µM for the first, 1 to 10 µM for the second.

`CC(C)(O)c1ccc(-c2ccc3nc4c(n3n2)[C@@H](c2cc(Cl)ccc2OC(F)F)NC[C@H]4O)cc1` (racemic) [Example 54, (+/−)-cis-9-(5-chloro-2-(difluoromethoxy)phenyl)-2-(4-(2-hydroxypropan-2-yl)phenyl)-6,7,8,9-tetrahydropyrido[4′,3′:4,5]imidazo[1,2-b]pyridazin-6-ol] and `O=C(c1ccc(-c2ccc3nc4c(n3n2)C(c2ccccc2OC(F)F)NCC4O)cc1)N1CCOCC1` (centres unmarked) [Example 19, (4-(9-(2-(difluoromethoxy)phenyl)-6-hydroxy-6,7,8,9-tetrahydropyrido[4′,3′:4,5]imidazo[1,2-b]pyridazin-2-yl)phenyl)(morpholino)methanone] fall in the same range of IC50: 1 to 10 µM for the first, 1 to 10 µM for the second.

`CC(C)(O)c1ccc(-c2ccc3nc4c(n3n2)C(c2ccccc2OC(F)(F)F)NCC4O)cc1` (centres unmarked) [Example 26, 2-(4-(2-hydroxypropan-2-yl)phenyl)-9-(2-(trifluoromethoxy)phenyl)-6,7,8,9-tetrahydropyrido [4′,3′:4,5]imidazo[1,2-b]pyridazin-6-ol] was tested, and the IC50 was under 1 µM.

Reference: patent publication US10308652B2, “Tricyclic heterocyclic compounds useful as inhibitors of TNF” (BRISTOL-MYERS SQUIBB COMPANY, priority 2015, dated 2019)
